Results reported in ChEMBL document CHEMBL1909046, “DrugMatrix in vitro pharmacology data”.

Columns and labels:
Cytochrome P450 3A4 = Cytochrome P450 3A4 (Homo sapiens, UniProt P08684); details: bti-tn-5b1-4; note: in other assays of this panel Not Active means under 50% inhibition at 10 µM
Cannabinoid receptor 1 = Cannabinoid receptor 1 (Homo sapiens, UniProt P21554); type: cell membranes, Membrane; details: chem-1; note: in other assays of this panel Not Active means under 50% inhibition at 10 µM
D(3) dopamine receptor = D(3) dopamine receptor (Homo sapiens, UniProt P35462); assay: DRUGMATRIX: Dopamine D3 radioligand binding (ligand: [3H] Spiperone); type: cell membranes, CHO, Membrane
[1] = DRUGMATRIX: Imidazoline I2, Central radioligand binding (ligand: [3H] Idazoxan); type: cell membranes, Rattus norvegicus, Wistar, Cerebral cortex, Membrane; details: Not Active = under 50% inhibition at 10 µM
Cytochrome P450 1A2 = molecular target: T1, Cytochrome P450 1A2 (Homo sapiens, UniProt P05177); details: bti-tn-5b1-4; note: in other assays of this panel Not Active means under 50% inhibition at 10 µM
T1 sequence (P05177 whole entry): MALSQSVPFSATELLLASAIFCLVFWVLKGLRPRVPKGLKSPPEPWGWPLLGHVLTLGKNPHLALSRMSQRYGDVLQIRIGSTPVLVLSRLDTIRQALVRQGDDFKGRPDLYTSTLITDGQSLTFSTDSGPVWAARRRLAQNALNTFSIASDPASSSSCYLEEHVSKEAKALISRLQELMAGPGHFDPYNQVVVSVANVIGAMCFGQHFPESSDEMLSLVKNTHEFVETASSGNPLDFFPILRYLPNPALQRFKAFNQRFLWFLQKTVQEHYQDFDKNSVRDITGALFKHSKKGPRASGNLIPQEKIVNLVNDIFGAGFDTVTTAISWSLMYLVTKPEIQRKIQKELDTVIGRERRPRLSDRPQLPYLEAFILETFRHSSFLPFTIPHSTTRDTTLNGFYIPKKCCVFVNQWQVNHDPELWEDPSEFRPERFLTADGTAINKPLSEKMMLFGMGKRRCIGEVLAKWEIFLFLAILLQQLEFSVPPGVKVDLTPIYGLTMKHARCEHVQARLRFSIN

[2] = molecular target: 5-hydroxytryptamine receptor 2B (Homo sapiens, UniProt P41595); type: cell membranes, CHO-K1, Membrane; note: in other assays of this panel Not Active means under 50% inhibition at 10 µM
Chain of 5-hydroxytryptamine receptor 2B (P41595 whole entry): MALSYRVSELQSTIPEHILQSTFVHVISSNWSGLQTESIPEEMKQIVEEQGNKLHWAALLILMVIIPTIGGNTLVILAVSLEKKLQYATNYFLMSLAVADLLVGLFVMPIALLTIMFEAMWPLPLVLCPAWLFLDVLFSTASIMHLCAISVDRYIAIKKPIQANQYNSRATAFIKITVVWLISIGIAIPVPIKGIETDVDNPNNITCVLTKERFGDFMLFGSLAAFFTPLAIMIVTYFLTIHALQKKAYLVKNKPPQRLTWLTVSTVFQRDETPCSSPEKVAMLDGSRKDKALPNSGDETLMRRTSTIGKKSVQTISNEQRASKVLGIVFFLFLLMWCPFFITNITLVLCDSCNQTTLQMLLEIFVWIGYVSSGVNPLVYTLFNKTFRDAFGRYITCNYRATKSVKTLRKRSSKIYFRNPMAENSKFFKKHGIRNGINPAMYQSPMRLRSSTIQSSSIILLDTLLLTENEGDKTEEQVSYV

Chain of Cytochrome P450 3A4 (P08684 whole entry): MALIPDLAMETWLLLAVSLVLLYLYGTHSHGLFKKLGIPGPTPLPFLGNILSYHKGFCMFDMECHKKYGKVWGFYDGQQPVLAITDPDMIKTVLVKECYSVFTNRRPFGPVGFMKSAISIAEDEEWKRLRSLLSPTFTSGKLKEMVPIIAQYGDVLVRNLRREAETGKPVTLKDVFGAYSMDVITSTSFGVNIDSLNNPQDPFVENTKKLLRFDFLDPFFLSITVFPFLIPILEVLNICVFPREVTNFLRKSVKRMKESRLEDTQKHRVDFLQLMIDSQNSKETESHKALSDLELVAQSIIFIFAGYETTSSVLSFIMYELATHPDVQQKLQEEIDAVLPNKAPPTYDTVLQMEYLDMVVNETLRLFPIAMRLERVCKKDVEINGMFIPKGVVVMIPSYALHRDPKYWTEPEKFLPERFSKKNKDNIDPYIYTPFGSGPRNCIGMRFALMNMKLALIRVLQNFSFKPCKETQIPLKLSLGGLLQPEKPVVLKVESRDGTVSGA
Chain of D(3) dopamine receptor (P35462 whole entry): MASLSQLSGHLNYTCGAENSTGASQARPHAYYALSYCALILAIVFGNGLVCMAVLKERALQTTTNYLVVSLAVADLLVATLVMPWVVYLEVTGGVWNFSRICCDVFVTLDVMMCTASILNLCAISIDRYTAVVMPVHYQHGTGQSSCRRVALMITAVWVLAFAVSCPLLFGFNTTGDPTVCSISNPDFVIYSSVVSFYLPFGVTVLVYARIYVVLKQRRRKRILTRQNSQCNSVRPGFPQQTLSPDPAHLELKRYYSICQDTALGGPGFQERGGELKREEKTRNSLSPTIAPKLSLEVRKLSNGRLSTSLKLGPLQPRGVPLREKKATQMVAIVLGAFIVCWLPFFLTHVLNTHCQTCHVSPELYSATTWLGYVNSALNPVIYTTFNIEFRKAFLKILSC
Chain of Cannabinoid receptor 1 (P21554 whole entry): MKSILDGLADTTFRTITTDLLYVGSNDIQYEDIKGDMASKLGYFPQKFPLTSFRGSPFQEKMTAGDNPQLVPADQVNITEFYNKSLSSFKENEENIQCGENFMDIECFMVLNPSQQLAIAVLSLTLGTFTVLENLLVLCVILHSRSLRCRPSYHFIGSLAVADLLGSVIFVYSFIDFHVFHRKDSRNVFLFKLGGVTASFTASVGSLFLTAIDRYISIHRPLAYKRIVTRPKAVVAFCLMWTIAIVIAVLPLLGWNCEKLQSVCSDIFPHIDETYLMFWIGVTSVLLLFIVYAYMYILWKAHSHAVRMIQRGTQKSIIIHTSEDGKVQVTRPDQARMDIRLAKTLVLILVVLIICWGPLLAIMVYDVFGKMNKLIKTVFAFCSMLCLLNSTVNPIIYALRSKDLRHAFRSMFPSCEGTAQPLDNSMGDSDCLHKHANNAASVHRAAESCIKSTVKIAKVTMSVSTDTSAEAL

SMILES | IC50 (Cytochrome P450 3A4) | Ki (Cytochrome P450 3A4) | IC50 (Cannabinoid receptor 1) | IC50 (D(3) dopamine receptor; cho) | IC50 [1] | Ki [1] | IC50 (Cytochrome P450 1A2) | Ki (Cytochrome P450 1A2) | Ki ([2]; cho-k1) | IC50 ([2]; cho-k1) | IC50 (D(3) dopamine receptor; read-out: IC50) [nM] | Ki (D(3) dopamine receptor; read-out: Ki) [nM] | IC50 ([1]; read-out: IC50) [nM] | Ki ([1]; read-out: Ki) [nM] | IC50 ([2]; read-out: IC50) [nM] | Ki ([2]; read-out: Ki) [nM]
NC[C@@H]1O[C@H](O[C@H]2[C@@H](O)[C@H](O[C@@H]3[C@@H](O)[C@H](N)C[C@H](N)[C@H]3O[C@H]3O[C@H](CN)[C@@H](O)[C@H](O)[C@H]3N)O[C@@H]2CO)[C@H](N)[C@@H](O)[C@@H]1O [FRAMYCETIN] | Not Active | Not Active | Not Active | Not Active | Not Active | Not Active | Not Active | Not Active | Not Active |  |  |  |  |  |  | 
CCCCCC[C@H]1C(=O)O[C@H](C)[C@H](NC(=O)c2cccc(NC=O)c2O)C(=O)O[C@@H](C)[C@@H]1OC(=O)CC(C)C [ANTIMYCIN A] | Not Active | Not Active | Not Active | Not Active | Not Active | Not Active | Not Active | Not Active |  | Not Active |  |  |  |  |  | 
Oc1ccccc1O [CATECHOL] | Not Active | Not Active | Not Active | Not Active | Not Active | Not Active | Not Active | Not Active |  | Not Active |  |  |  |  |  | 
Cc1c(F)c(N2CCNC(C)C2)cc2c1c(=O)c(C(=O)O)cn2C1CC1 (stereo not given) [GREPAFLOXACIN] | Not Active | Not Active | Not Active | Not Active | Not Active | Not Active | Not Active | Not Active |  | Not Active |  |  |  |  |  | 
[N-]=[N+]=CC(=O)OC[C@H](N)C(=O)O [AZASERINE] | Not Active | Not Active | Not Active | Not Active | Not Active | Not Active | Not Active | Not Active |  | Not Active |  |  |  |  |  | 
C#C[C@]1(O)CC[C@H]2[C@@H]3CCC4=Cc5oncc5C[C@]4(C)[C@H]3CC[C@@]21C [DANAZOL] | Not Active | Not Active | Not Active |  | Not Active | Not Active | Not Active | Not Active |  | Not Active | 28900 | 9800 |  |  |  | 
CO[C@H]1[C@@H](O)[C@H](N)[C@@H](O[C@H]2O[C@H]([C@H](C)N)CC[C@H]2N)[C@H](O)[C@@H]1N(C)C(=O)CN [ASTROMICIN] | Not Active | Not Active | Not Active | Not Active | Not Active | Not Active | Not Active | Not Active |  | Not Active |  |  |  |  |  | 
N=C(N)N/N=C/c1c(Cl)cccc1Cl [GUANABENZ] | Not Active | Not Active | Not Active | Not Active |  |  | Not Active | Not Active |  |  |  |  | 18 | 12 | 97 | 62
NC(=O)N1c2ccccc2C=Cc2ccccc21 [CARBAMAZEPINE] | Not Active | Not Active | Not Active | Not Active | Not Active | Not Active | Not Active | Not Active |  | Not Active |  |  |  |  |  | 
Cc1c(N(C)CS(=O)(=O)[O-])c(=O)n(-c2ccccc2)n1C.[Na+] [DIPYRONE SODIUM] | Not Active | Not Active | Not Active | Not Active | Not Active | Not Active | Not Active | Not Active |  | Not Active |  |  |  |  |  | 
CC[C@]1(O)CC[C@H]2[C@@H]3CCC4=CCCC[C@@H]4[C@H]3CC[C@@]21C | Not Active | Not Active | Not Active | Not Active | Not Active | Not Active | Not Active | Not Active |  | Not Active |  |  |  |  |  | 
CCOC(=O)n1ccn(C)c1=S [CARBIMAZOLE] | Not Active | Not Active | Not Active | Not Active | Not Active | Not Active | Not Active | Not Active |  | Not Active |  |  |  |  |  | 
COc1ccc(Cc2nccc3cc(OC)c(OC)cc23)cc1OC [PAPAVERINE] | Not Active | Not Active | Not Active | Not Active | Not Active | Not Active | Not Active | Not Active |  | Not Active |  |  |  |  |  | 
C#C[C@]1(O)CC[C@H]2[C@@H]3CCc4cc(O)ccc4[C@H]3CC[C@@]21C [ETHINYL ESTRADIOL] | Not Active | Not Active | Not Active | Not Active | Not Active | Not Active | Not Active | Not Active |  | Not Active |  |  |  |  |  | 
C[C@H]([C@](O)(Cn1cncn1)c1ccc(F)cc1F)S(C)(=O)=O [GENACONAZOLE] | Not Active | Not Active | Not Active | Not Active | Not Active | Not Active | Not Active | Not Active |  | Not Active |  |  |  |  |  | 
CCOC(=O)[C@H](CCc1ccccc1)N[C@@H](C)C(=O)N1CCC[C@H]1C(=O)O | Not Active | Not Active | Not Active | Not Active | Not Active | Not Active | Not Active | Not Active |  | Not Active |  |  |  |  |  | 
Nn1nnc2ccccc21 | Not Active | Not Active | Not Active | Not Active | Not Active | Not Active | Not Active | Not Active |  | Not Active |  |  |  |  |  | 
CC(C)(CO)C(O)C(=O)NCCCO (stereo not given) [PANTHENOL] | Not Active | Not Active | Not Active | Not Active | Not Active | Not Active | Not Active | Not Active |  | Not Active |  |  |  |  |  | 
O=C(O)Cc1ccc(-c2ccccc2)cc1 [FELBINAC] | Not Active | Not Active | Not Active | Not Active | Not Active | Not Active | Not Active | Not Active |  | Not Active |  |  |  |  |  | 
O=C(O)c1cccnc1 [NIACIN] | Not Active | Not Active | Not Active | Not Active | Not Active | Not Active | Not Active | Not Active |  | Not Active |  |  |  |  |  | 
C[C@H](C(=O)O)c1cccc(C(=O)c2ccccc2)c1 [DEXKETOPROFEN] | Not Active | Not Active | Not Active | Not Active | Not Active | Not Active | Not Active | Not Active |  | Not Active |  |  |  |  |  | 
CC[C@H]1OC(=O)[C@H](C)[C@@H](O[C@H]2C[C@@](C)(OC)[C@@H](O)[C@H](C)O2)[C@H](C)[C@@H](O[C@@H]2O[C@H](C)C[C@H](N(C)C)[C@H]2O)[C@](C)(OC)C[C@@H](C)C(=O)[C@H](C)[C@@H](O)[C@]1(C)O [CLARITHROMYCIN] | Not Active | Not Active | Not Active | Not Active | Not Active | Not Active | Not Active | Not Active |  | Not Active |  |  |  |  |  | 
